Test in all cases: relative viability (nuclei count vs DMSO), 5 days (fraction); higher = more cells survive
Compound in the assay “AZD8055 + OSI-027”: COc1ccc(-c2ccc3c(N4CCOC[C@@H]4C)nc(N4CCOC[C@@H]4C)nc3n2)cc1CO [AZD8055] + COc1cccc2cc(-c3nc([C@H]4CC[C@H](C(=O)O)CC4)n4ncnc(N)c34)[nH]c12 [OSI-027] (partner 0.5 µM)
Summed up: (§1)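 Lung cancer cell lines in 1536-well plates were dosed by pin tool the day after seeding, either with one drug alone or with a fixed anchor-drug dose plus five library-drug doses (not always all listed) in √10 steps. After 5 days, cells were fixed and their nuclei stained in one step (final 0.05% Triton X-100, 1% formaldehyde, 1 ug/ml Hoechst), then counted on 4× images. Relative viability is the nuclei count in treated wells divided by that in vehicle wells. Values are medians of duplicate plates.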

Compound in the assay “AZD8055 + Crizotinib”: COc1ccc(-c2ccc3c(N4CCOC[C@@H]4C)nc(N4CCOC[C@@H]4C)nc3n2)cc1CO [AZD8055] + C[C@@H](Oc1cc(-c2cnn(C3CCNCC3)c2)cnc1N)c1c(Cl)ccc(F)c1Cl [Crizotinib] (partner 1 µM)
Summed up:
as §1

Compound in the assay “AZD8055 + Linsitinib”: COc1ccc(-c2ccc3c(N4CCOC[C@@H]4C)nc(N4CCOC[C@@H]4C)nc3n2)cc1CO [AZD8055] + C[C@]1(O)C[C@@H](c2nc(-c3ccc4ccc(-c5ccccc5)nc4c3)c3c(N)nccn32)C1 [Linsitinib] (partner 1 µM)
Summed up:
as §1

Compound in the assay “AZD8055 + Tozasertib”: COc1ccc(-c2ccc3c(N4CCOC[C@@H]4C)nc(N4CCOC[C@@H]4C)nc3n2)cc1CO [AZD8055] + Cc1cc(Nc2cc(N3CCN(C)CC3)nc(Sc3ccc(NC(=O)C4CC4)cc3)n2)n[nH]1 [Tozasertib] (partner 0.1 µM)
Summed up:
as §1

Consider LOU-NH91, for which the relative viability in the assay with AZD8055 + OSI-027 (first compound 0.01 µM) was 0.775; in the assay with AZD8055 + OSI-027 (first compound 0.03162 µM), 0.797; with AZD8055 + OSI-027 (first compound 0.1 µM) it was 0.66; in the assay with AZD8055 + OSI-027 (first compound 0.3162 µM), 0.569; with AZD8055 + OSI-027 (first compound 1 µM) it was 0.556; in the assay with AZD8055 + Crizotinib (first compound 0.01 µM), 0.71. Besides, the relative viability with AZD8055 + Crizotinib (first compound 0.03162 µM) worked out at 0.713; with AZD8055 + Crizotinib (first compound 0.1 µM), 0.673; with AZD8055 + Crizotinib (first compound 0.3162 µM), 0.592; with AZD8055 + Crizotinib (first compound 1 µM), 0.531; with AZD8055 + Linsitinib (first compound 0.01 µM) it was 0.889; with AZD8055 + Linsitinib (first compound 0.03162 µM) it was 0.835. Also, the relative viability amounted to 0.629 in the assay with AZD8055 + Linsitinib (first compound 0.1 µM); 0.585 with AZD8055 + Linsitinib (first compound 0.3162 µM); 0.524 with AZD8055 + Linsitinib (first compound 1 µM); 0.735 in the assay with AZD8055 + Tozasertib (first compound 0.01 µM); 0.716 with AZD8055 + Tozasertib (first compound 0.03162 µM); 0.693 in the assay with AZD8055 + Tozasertib (first compound 0.1 µM). The values for the relative viability with AZD8055 + Tozasertib (first compound 0.3162 µM) and with AZD8055 + Tozasertib (first compound 1 µM) were 0.672 and 0.506, respectively.
Take NCI-H2347: the relative viability with AZD8055 + OSI-027 (first compound 0.01 µM) was 0.408; in the assay with AZD8055 + OSI-027 (first compound 0.03162 µM), 0.387; with AZD8055 + OSI-027 (first compound 0.1 µM), 0.356; in the assay with AZD8055 + OSI-027 (first compound 0.3162 µM), 0.346; in the assay with AZD8055 + OSI-027 (first compound 1 µM) it was 0.248; with AZD8055 + Crizotinib (first compound 0.01 µM) it was 0.601. For the same cell line, the relative viability turned out to be 0.509 with AZD8055 + Crizotinib (first compound 0.03162 µM); 0.402 in the assay with AZD8055 + Crizotinib (first compound 0.1 µM); 0.332 with AZD8055 + Crizotinib (first compound 0.3162 µM); 0.531 with AZD8055 + Crizotinib (first compound 1 µM); 0.875 in the assay with AZD8055 + Linsitinib (first compound 0.01 µM); 0.805 with AZD8055 + Linsitinib (first compound 0.03162 µM). Further, the relative viability in the assay with AZD8055 + Linsitinib (first compound 0.1 µM) is 0.746; with AZD8055 + Linsitinib (first compound 0.3162 µM) it was 0.51; with AZD8055 + Linsitinib (first compound 1 µM) it was 0.436; in the assay with AZD8055 + Tozasertib (first compound 0.01 µM) it was 0.543; in the assay with AZD8055 + Tozasertib (first compound 0.03162 µM), 0.515; with AZD8055 + Tozasertib (first compound 0.1 µM) it was 0.519. The relative viability with AZD8055 + Tozasertib (first compound 0.3162 µM) worked out at 0.305; with AZD8055 + Tozasertib (first compound 1 µM), 0.252.
As to NCI-H2126, the relative viability with AZD8055 + OSI-027 (first compound 0.01 µM) was determined as 0.762; in the assay with AZD8055 + OSI-027 (first compound 0.03162 µM), 0.743; in the assay with AZD8055 + OSI-027 (first compound 0.1 µM) it was 0.717; with AZD8055 + OSI-027 (first compound 0.3162 µM) it was 0.528; in the assay with AZD8055 + OSI-027 (first compound 1 µM), 0.449; in the assay with AZD8055 + Crizotinib (first compound 0.01 µM), 0.997. Further, the relative viability worked out at 1.02 in the assay with AZD8055 + Crizotinib (first compound 0.03162 µM); 0.926 with AZD8055 + Crizotinib (first compound 0.1 µM); 0.617 with AZD8055 + Crizotinib (first compound 0.3162 µM); 0.494 with AZD8055 + Crizotinib (first compound 1 µM); 0.655 in the assay with AZD8055 + Linsitinib (first compound 0.01 µM); 0.572 with AZD8055 + Linsitinib (first compound 0.03162 µM). Further, the relative viability with AZD8055 + Linsitinib (first compound 0.1 µM) amounted to 0.504; with AZD8055 + Linsitinib (first compound 0.3162 µM), 0.375; in the assay with AZD8055 + Linsitinib (first compound 1 µM) it was 0.385; with AZD8055 + Tozasertib (first compound 0.01 µM), 0.844; with AZD8055 + Tozasertib (first compound 0.03162 µM), 0.829; in the assay with AZD8055 + Tozasertib (first compound 0.1 µM), 0.687. The relative viability with AZD8055 + Tozasertib (first compound 0.3162 µM) is 0.427; with AZD8055 + Tozasertib (first compound 1 µM), 0.375.
Consider HCC-827, for which the relative viability with AZD8055 + OSI-027 (first compound 0.01 µM) came to 0.798; with AZD8055 + OSI-027 (first compound 0.03162 µM) it was 0.746; with AZD8055 + OSI-027 (first compound 0.1 µM) it was 0.809; in the assay with AZD8055 + OSI-027 (first compound 0.3162 µM), 0.604; with AZD8055 + OSI-027 (first compound 1 µM), 0.641; in the assay with AZD8055 + Crizotinib (first compound 0.01 µM), 1. In addition, the relative viability is 0.965 with AZD8055 + Crizotinib (first compound 0.03162 µM); 0.991 in the assay with AZD8055 + Crizotinib (first compound 0.1 µM); 0.479 with AZD8055 + Crizotinib (first compound 0.3162 µM); 0.393 with AZD8055 + Crizotinib (first compound 1 µM); 0.97 in the assay with AZD8055 + Linsitinib (first compound 0.01 µM); 0.971 in the assay with AZD8055 + Linsitinib (first compound 0.03162 µM). Moreover, the relative viability turned out to be 0.932 with AZD8055 + Linsitinib (first compound 0.1 µM); 0.794 with AZD8055 + Linsitinib (first compound 0.3162 µM); 0.469 with AZD8055 + Linsitinib (first compound 1 µM); 0.449 in the assay with AZD8055 + Tozasertib (first compound 0.01 µM); 0.448 in the assay with AZD8055 + Tozasertib (first compound 0.03162 µM); 0.447 with AZD8055 + Tozasertib (first compound 0.1 µM). The relative viability with AZD8055 + Tozasertib (first compound 0.3162 µM) was found to be 0.235; with AZD8055 + Tozasertib (first compound 1 µM), 0.295.
Take NCI-H3122: the relative viability with AZD8055 + OSI-027 (first compound 0.01 µM) was determined as 1.09; with AZD8055 + OSI-027 (first compound 0.03162 µM) it was 0.846; with AZD8055 + OSI-027 (first compound 0.1 µM) it was 0.854; with AZD8055 + OSI-027 (first compound 0.3162 µM), 0.323; with AZD8055 + OSI-027 (first compound 1 µM), 0.236; in the assay with AZD8055 + Crizotinib (first compound 0.01 µM), 0.248. Also, the relative viability with AZD8055 + Crizotinib (first compound 0.03162 µM) amounted to 0.238; with AZD8055 + Crizotinib (first compound 0.1 µM) it was 0.183; with AZD8055 + Crizotinib (first compound 0.3162 µM), 0.174; with AZD8055 + Crizotinib (first compound 1 µM), 0.171; in the assay with AZD8055 + Linsitinib (first compound 0.01 µM) it was 0.995; in the assay with AZD8055 + Linsitinib (first compound 0.03162 µM) it was 0.823. For the same cell line, the relative viability in the assay with AZD8055 + Linsitinib (first compound 0.1 µM) was determined as 0.547; with AZD8055 + Linsitinib (first compound 0.3162 µM), 0.384; with AZD8055 + Linsitinib (first compound 1 µM), 0.299; with AZD8055 + Tozasertib (first compound 0.01 µM), 0.465; with AZD8055 + Tozasertib (first compound 0.03162 µM), 0.375; in the assay with AZD8055 + Tozasertib (first compound 0.1 µM), 0.315. Besides, the relative viability with AZD8055 + Tozasertib (first compound 0.3162 µM) came to 0.178; with AZD8055 + Tozasertib (first compound 1 µM) it was 0.132.
Consider HOP-62, for which the relative viability with AZD8055 + OSI-027 (first compound 0.01 µM) worked out at 0.902; with AZD8055 + OSI-027 (first compound 0.03162 µM) it was 0.795; with AZD8055 + OSI-027 (first compound 0.1 µM) it was 0.87; with AZD8055 + OSI-027 (first compound 0.3162 µM) it was 0.585; with AZD8055 + OSI-027 (first compound 1 µM), 0.453; in the assay with AZD8055 + Crizotinib (first compound 0.01 µM), 0.837. In addition, the relative viability is 0.853 with AZD8055 + Crizotinib (first compound 0.03162 µM); 0.71 with AZD8055 + Crizotinib (first compound 0.1 µM); 0.387 with AZD8055 + Crizotinib (first compound 0.3162 µM); 0.345 with AZD8055 + Crizotinib (first compound 1 µM); 1.09 with AZD8055 + Linsitinib (first compound 0.01 µM); 0.789 in the assay with AZD8055 + Linsitinib (first compound 0.03162 µM). For the same cell line, the relative viability with AZD8055 + Linsitinib (first compound 0.1 µM) was determined as 0.869; with AZD8055 + Linsitinib (first compound 0.3162 µM) it was 0.362; with AZD8055 + Linsitinib (first compound 1 µM), 0.266; with AZD8055 + Tozasertib (first compound 0.01 µM) it was 0.414; with AZD8055 + Tozasertib (first compound 0.03162 µM), 0.46; with AZD8055 + Tozasertib (first compound 0.1 µM), 0.401. Further, the figures for the relative viability with AZD8055 + Tozasertib (first compound 0.3162 µM) and in the assay with AZD8055 + Tozasertib (first compound 1 µM) were 0.292 and 0.273, respectively.
HCC-44: the relative viability is 0.6 with AZD8055 + OSI-027 (first compound 0.01 µM); 0.526 with AZD8055 + OSI-027 (first compound 0.03162 µM); 0.483 in the assay with AZD8055 + OSI-027 (first compound 0.1 µM); 0.267 in the assay with AZD8055 + OSI-027 (first compound 0.3162 µM); 0.308 with AZD8055 + OSI-027 (first compound 1 µM); 0.879 with AZD8055 + Crizotinib (first compound 0.01 µM). Moreover, the relative viability with AZD8055 + Crizotinib (first compound 0.03162 µM) was determined as 0.825; with AZD8055 + Crizotinib (first compound 0.1 µM) it was 0.662; with AZD8055 + Crizotinib (first compound 0.3162 µM), 0.364; in the assay with AZD8055 + Crizotinib (first compound 1 µM) it was 0.315; with AZD8055 + Linsitinib (first compound 0.01 µM) it was 0.565; with AZD8055 + Linsitinib (first compound 0.03162 µM), 0.506. Moreover, the relative viability with AZD8055 + Linsitinib (first compound 0.1 µM) amounted to 0.298; in the assay with AZD8055 + Linsitinib (first compound 0.3162 µM), 0.198; with AZD8055 + Linsitinib (first compound 1 µM), 0.226; with AZD8055 + Tozasertib (first compound 0.01 µM), 1.03; with AZD8055 + Tozasertib (first compound 0.03162 µM), 0.914; with AZD8055 + Tozasertib (first compound 0.1 µM), 0.626. Further, the relative viability in the assay with AZD8055 + Tozasertib (first compound 0.3162 µM) was 0.543; with AZD8055 + Tozasertib (first compound 1 µM), 0.613.

For the origin of these results see the supplement of paper PMC10307832.
